{"source": "ChEMBL document CHEMBL5370643", "about": "“Discovery of MK-1468: A Potent, Kinome-Selective, Brain-Penetrant Amidoisoquinoline LRRK2 Inhibitor for the Potential Treatment of Parkinson's Disease” (J Med Chem, 2023)", "key": {"[1]": {"biological_target": "Leucine-rich repeat serine/threonine-protein kinase 2 (Homo sapiens, UniProt Q5S007, G2019S)", "sequence (Q5S007 whole entry G2019S, the tested form may be a part)": "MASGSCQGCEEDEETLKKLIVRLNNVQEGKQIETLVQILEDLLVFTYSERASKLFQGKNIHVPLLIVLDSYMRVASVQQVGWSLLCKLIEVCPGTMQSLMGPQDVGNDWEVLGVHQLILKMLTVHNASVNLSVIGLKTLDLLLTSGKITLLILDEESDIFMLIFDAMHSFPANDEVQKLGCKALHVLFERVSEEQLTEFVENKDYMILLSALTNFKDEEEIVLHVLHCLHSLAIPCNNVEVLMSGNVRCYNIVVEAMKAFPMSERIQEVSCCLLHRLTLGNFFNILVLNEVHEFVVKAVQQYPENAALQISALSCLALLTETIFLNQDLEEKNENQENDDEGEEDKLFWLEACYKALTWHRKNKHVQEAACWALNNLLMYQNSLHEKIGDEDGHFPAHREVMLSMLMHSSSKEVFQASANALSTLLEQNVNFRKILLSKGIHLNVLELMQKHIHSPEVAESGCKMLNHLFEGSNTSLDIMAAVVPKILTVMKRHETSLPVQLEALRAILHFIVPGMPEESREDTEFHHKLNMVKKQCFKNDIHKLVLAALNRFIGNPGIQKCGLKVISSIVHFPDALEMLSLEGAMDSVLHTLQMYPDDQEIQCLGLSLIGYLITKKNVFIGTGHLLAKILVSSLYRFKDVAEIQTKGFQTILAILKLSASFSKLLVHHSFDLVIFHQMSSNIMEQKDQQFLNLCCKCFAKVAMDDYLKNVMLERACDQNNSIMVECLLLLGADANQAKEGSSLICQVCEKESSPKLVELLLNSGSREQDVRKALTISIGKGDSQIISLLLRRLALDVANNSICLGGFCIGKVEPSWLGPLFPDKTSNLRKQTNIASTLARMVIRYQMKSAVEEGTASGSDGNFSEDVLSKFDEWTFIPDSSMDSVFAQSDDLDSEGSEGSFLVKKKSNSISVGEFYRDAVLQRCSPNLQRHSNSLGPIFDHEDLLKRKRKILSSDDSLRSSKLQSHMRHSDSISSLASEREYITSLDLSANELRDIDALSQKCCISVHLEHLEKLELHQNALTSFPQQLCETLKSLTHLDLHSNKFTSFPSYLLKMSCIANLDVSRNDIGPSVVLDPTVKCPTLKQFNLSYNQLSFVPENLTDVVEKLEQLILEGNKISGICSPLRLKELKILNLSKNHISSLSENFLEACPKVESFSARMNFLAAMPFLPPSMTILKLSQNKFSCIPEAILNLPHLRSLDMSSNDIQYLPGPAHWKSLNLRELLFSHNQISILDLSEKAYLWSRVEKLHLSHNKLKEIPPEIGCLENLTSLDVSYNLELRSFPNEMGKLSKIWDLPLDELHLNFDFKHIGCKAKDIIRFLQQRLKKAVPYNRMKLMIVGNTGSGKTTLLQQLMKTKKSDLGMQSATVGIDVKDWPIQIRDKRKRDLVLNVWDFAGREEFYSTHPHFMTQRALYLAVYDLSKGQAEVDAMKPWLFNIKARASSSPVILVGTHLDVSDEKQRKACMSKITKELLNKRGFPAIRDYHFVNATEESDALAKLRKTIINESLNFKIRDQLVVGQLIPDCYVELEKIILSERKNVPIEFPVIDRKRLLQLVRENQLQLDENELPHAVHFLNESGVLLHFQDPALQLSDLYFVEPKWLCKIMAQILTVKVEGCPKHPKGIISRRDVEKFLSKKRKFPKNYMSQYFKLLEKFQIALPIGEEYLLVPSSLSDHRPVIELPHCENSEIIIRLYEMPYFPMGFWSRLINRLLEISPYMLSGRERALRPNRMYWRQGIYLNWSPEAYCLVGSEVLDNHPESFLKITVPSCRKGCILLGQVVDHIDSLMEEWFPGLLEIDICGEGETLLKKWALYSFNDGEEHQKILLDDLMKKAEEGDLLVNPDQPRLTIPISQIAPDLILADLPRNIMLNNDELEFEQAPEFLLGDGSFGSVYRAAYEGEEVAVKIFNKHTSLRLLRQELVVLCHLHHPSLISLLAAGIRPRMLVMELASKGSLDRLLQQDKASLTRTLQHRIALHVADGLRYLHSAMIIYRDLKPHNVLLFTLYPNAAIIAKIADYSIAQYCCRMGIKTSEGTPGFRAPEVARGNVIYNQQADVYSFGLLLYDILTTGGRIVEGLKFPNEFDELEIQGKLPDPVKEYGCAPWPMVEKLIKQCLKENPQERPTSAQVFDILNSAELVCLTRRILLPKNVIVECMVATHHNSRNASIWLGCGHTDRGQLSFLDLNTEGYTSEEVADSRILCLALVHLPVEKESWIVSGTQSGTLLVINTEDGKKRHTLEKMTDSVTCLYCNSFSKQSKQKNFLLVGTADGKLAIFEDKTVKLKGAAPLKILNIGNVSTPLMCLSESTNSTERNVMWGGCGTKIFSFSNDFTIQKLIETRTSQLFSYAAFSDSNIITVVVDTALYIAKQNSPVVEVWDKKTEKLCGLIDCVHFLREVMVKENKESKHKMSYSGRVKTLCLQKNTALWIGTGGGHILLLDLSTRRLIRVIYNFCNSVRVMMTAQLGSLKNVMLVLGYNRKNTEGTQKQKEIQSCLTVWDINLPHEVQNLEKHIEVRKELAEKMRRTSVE", "test": "Inhibition of recombinant N-terminal GST-fused LRRK2 […] mutant (970 to 2527 residues) (unknown origin) using LRRKtide peptide as substrate assessed as inhibition of substrate phosphorylation preincubated with compound for 15 mins followed by substrate addition and measured after 90 mins in presence of ATP by TR-FRET assay"}, "[2]": {"biological_target": "Leucine-rich repeat serine/threonine-protein kinase 2 (Homo sapiens) (UniProt Q5S007)", "sequence (Q5S007 whole entry)": "as the sequence (Q5S007 whole entry G2019S, the tested form may be a part) above, with S2019G counted along it", "test": "Inhibition of LRRK2 in human PBMC using LRRKtide peptide as substrate assessed as Ser935 dephosphorylation preincubated with compound for 15 mins followed by substrate addition and measured after 90 mins in presence of ATP by TR-FRET assay", "format": "cell-based", "details": "time 105.0 min; call rule not given here"}, "rat Mdr1a P-gp": {"system": "rat Mdr1a P-gp", "test": "Apparent permeability across apical to basolateral side in LLC-PK1 cells transfected with rat Mdr1a P-gp incubated for 3 hrs by LC-MS/MS analysis", "details": "pig"}, "rat Mdrl1 P-gp": {"system": "rat Mdrl1 P-gp", "test": "Efflux ratio of apparent permeability across basolateral to apical over apical to basolateral side in MDCK cells transfected with rat Mdrl1 P-gp incubated for 3 hrs by LC-MS/MS analysis", "details": "dog, MDCK-MDR1"}, "mouse BCRP": {"system": "mouse BCRP", "test": "Efflux ratio of apparent permeability across basolateral to apical over apical to basolateral side in MDCK-II cells transfected with mouse BCRP incubated for 3 hrs by LC-MS/MS analysis", "details": "dog"}, "[3]": {"biological_target": "Voltage-gated inwardly rectifying potassium channel KCNH2 (Homo sapiens, UniProt Q12809)", "sequence (Q12809 whole entry)": "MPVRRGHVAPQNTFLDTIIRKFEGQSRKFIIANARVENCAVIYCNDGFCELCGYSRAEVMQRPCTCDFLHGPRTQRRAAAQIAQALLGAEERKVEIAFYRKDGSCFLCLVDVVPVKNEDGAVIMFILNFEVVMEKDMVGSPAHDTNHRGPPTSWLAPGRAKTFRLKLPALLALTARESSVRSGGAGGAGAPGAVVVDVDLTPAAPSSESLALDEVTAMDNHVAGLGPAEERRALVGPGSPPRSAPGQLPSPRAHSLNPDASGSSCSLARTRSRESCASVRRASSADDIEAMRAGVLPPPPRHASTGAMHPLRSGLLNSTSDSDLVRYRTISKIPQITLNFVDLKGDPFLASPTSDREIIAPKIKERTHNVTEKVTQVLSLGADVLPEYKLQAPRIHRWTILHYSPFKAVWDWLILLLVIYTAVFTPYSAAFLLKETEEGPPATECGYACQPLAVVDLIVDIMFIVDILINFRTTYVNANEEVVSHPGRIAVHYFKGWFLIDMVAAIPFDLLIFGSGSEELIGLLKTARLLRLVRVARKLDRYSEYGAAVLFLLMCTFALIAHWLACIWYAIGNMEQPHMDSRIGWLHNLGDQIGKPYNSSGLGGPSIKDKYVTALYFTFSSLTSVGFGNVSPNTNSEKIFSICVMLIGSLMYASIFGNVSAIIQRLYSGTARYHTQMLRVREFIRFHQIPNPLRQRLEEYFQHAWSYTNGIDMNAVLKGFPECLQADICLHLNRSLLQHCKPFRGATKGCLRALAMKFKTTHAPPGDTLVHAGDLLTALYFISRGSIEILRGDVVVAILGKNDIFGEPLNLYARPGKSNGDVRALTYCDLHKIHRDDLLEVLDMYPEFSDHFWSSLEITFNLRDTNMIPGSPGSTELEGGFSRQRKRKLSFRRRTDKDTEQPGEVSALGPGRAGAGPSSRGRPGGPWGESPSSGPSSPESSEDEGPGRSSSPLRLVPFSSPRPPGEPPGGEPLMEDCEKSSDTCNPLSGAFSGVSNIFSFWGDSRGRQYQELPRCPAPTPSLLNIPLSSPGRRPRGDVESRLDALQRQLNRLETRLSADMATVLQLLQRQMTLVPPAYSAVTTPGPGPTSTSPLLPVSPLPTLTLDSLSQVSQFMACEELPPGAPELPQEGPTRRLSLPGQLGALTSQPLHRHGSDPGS", "test": "(§1) Inhibition of hERG expressed in CHO cells by QPatch voltage clamp assay"}, "hERG": {"biological_target": "hERG (Homo sapiens, UniProt Q12809)", "test": "as §1", "details": "human, CHO cells expressing hERG"}, "[4]": {"test": "Total clearance in Wistar-Han rat at 2 mg/kg, iv measured after 24 hrs by LC-MS/MS analysis", "format": "ADME, organism-based", "details": "in vivo"}, "[5]": {"test": "Intrinsic clearance in Wistar-Han rat at 2 mg/kg, iv measured after 24 hrs by LC-MS/MS analysis", "format": "ADME, organism-based", "details": "in vivo"}, "[6]": {"test": "MRT in Wistar-Han rat at 2 mg/kg, iv measured after 24 hrs by LC-MS/MS analysis", "format": "ADME, organism-based", "details": "in vivo"}, "[7]": {"test": "Total clearance in Beagle dog at […], iv measured after 24 hrs by LC-MS/MS analysis", "format": "ADME, organism-based, Canis lupus familiaris", "details": "in vivo, dose 0.25 mg/kg"}, "[8]": {"test": "Intrinsic clearance in Beagle dog at […], iv measured after 24 hrs by LC-MS/MS analysis", "format": "ADME, organism-based, Canis lupus familiaris", "details": "in vivo, dose 0.25 mg/kg"}, "[9]": {"test": "MRT in Beagle dog at […], iv measured after 24 hrs by LC-MS/MS analysis", "format": "ADME, organism-based, Canis lupus familiaris", "details": "in vivo, dose 0.25 mg/kg"}, "[10]": {"test": "Total clearance in rhesus monkey at 1 mg/kg, iv measured after 24 hrs by LC-MS/MS analysis", "format": "ADME, organism-based, Macaca mulatta", "details": "in vivo"}, "[11]": {"test": "Intrinsic clearance in rhesus monkey at 1 mg/kg, iv measured after 24 hrs by LC-MS/MS analysis", "format": "ADME, organism-based, Macaca mulatta", "details": "in vivo"}, "[12]": {"test": "MRT in rhesus monkey at 1 mg/kg, iv measured after 24 hrs by LC-MS/MS analysis", "format": "ADME, organism-based, Macaca mulatta", "details": "in vivo"}, "[13]": {"test": "Oral bioavailability in Wistar-Han rat at 5 mg/kg measured after 24 hrs by LC-MS/MS analysis", "format": "ADME, organism-based", "details": "in vivo"}, "[14]": {"test": "Oral bioavailability in Beagle dog at 1 mg/kg measured after 24 hrs by LC-MS/MS analysis", "format": "ADME, organism-based, Canis lupus familiaris", "details": "in vivo"}, "[15]": {"test": "Oral bioavailability in rhesus monkey at 2 mg/kg measured after 24 hrs by LC-MS/MS analysis", "format": "ADME, organism-based, Macaca mulatta", "details": "in vivo"}, "[16]": {"test": "Unbound brain-to-plasma concentration ratio in iv dosed Wistar-Han rat administered as cassette dose by LC-MS/MS analysis", "format": "ADME, organism-based", "details": "read-out: K(p,uu,brain)"}, "[17]": {"biological_target": "MAP/microtubule affinity-regulating kinase 3 (Homo sapiens, UniProt P27448)", "test": "Inhibition of recombinant human full length MARK3 expressed in insect cells using CHKtide as substrate preincubated with compound for 15 mins followed by substrate addition and measured after 15 mins in the presence of ATP by scintillation based radiometric LeadHunter assay"}, "[18]": {"test": "Toxicity in Wistar-Han rat assessed as tolerance at 50 to 300 mg/kg, qd", "format": "organism-based", "details": "in vivo, dose 50-300 mg/kg"}, "[19]": {"test": "Drug metabolism in dog assessed as amide hydrolysis mediated metabolite formation by MetID analysis", "format": "ADME, Canis lupus familiaris"}, "[20]": {"test": "AUC in Wistar-Han rat at 50 mg/kg by LC-MS/MS analysis", "format": "ADME, organism-based", "parameters": "dose 50 mg/kg", "details": "in vivo"}, "[21]": {"test": "AUC in Wistar-Han rat at 300 mg/kg by LC-MS/MS analysis", "format": "ADME, organism-based", "parameters": "dose 300 mg/kg", "details": "in vivo"}, "Nav1.5": {"biological_target": "Nav1.5 (Homo sapiens, UniProt Q14524)", "test": "(§2) Inhibition of human Nav1.5 expressed in HEK293 cells by QPatch voltage clamp assay", "format": "cell-based", "details": "human, HEK293 cells expressing human Nav1.5"}, "[22]": {"biological_target": "Sodium channel protein type 5 subunit alpha (Homo sapiens, UniProt Q14524)", "test": "as §2", "format": "cell-based"}, "[23]": {"biological_target": "KCNQ1/KCNE1 (IKs, Kv7.1/MinK) (Homo sapiens, UniProt P15382+P51787)", "sequence (P51787 whole entry)": "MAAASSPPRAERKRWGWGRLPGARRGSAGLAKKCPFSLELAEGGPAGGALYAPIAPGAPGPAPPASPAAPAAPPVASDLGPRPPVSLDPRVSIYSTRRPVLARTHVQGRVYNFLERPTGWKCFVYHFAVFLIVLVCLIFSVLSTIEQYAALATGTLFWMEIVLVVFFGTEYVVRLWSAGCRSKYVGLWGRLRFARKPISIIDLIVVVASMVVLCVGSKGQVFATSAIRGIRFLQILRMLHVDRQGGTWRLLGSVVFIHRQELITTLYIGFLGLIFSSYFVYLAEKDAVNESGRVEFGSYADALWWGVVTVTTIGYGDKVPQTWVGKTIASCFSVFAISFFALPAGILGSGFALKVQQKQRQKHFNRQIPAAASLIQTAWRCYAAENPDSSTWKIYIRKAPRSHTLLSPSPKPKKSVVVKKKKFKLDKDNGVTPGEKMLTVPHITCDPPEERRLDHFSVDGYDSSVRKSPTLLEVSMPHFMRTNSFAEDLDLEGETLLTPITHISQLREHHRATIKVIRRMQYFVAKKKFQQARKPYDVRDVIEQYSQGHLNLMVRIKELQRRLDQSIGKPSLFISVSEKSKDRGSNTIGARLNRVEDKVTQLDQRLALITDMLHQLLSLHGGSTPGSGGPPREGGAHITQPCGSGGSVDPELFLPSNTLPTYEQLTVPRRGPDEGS", "test": "Inhibition of human KCNQ1/KCNE1 expressed in HEK293 cells at 30 uM by QPatch voltage clamp assay relative to control", "format": "cell-based", "details": "HEK293 cells expressing human KCNQ1/KCNE1"}, "[24]": {"biological_target": "Voltage-dependent L-type calcium channel subunit alpha-1C (Homo sapiens, UniProt Q13936)", "test": "Inhibition of human Cav1.2"}, "[25]": {"test": "Cardiotoxicity in guinea pig assessed as increase in PR interval at 20 to 50 mg/kg, iv administered continuously for 20 min by ECG analysis", "format": "toxicity, organism-based, Cavia porcellus", "details": "in vivo, dose 20-50 mg/kg"}, "[26]": {"test": "Cardiotoxicity in guinea pig assessed as increase in QRS interval at 20 to 50 mg/kg, iv administered continuously for 20 min by ECG analysis", "format": "toxicity, organism-based, Cavia porcellus", "details": "in vivo, dose 20-50 mg/kg"}, "[27]": {"test": "Cardiotoxicity in guinea pig assessed as increase in QTc interval at 20 to 50 mg/kg, iv administered continuously for 20 min by ECG analysis", "format": "toxicity, organism-based, Cavia porcellus", "details": "in vivo, dose 20-50 mg/kg"}, "[28]": {"test": "Lipophilicity, logD of compound at pH 7 by HT-HPLC/DAD analysis", "format": "physicochemical", "details": "buffer"}}, "data": [{"compound": "C[C@@]1(N2CCC(c3cc4cc(NC(=O)C5CC56CC6)ncc4cc3Cl)CC2)COC[C@@H]1O", "note": "(stereo partly drawn)", "values": [{"measurement": "IC50", "setting": "[1]", "value": 3, "unit": "nM"}, {"measurement": "fIC50", "setting": "[2]", "value": 2.8, "unit": "nM"}, {"measurement": "Papp A→B at 3 h", "setting": "rat Mdr1a P-gp", "value": 30, "unit": "×10⁻⁶ cm/s"}, {"measurement": "efflux ratio at 3 h", "setting": "rat Mdrl1 P-gp", "value": 1.5}, {"measurement": "efflux ratio at 3 h", "setting": "mouse BCRP", "value": 1.1}, {"measurement": "IC50", "setting": "[3]", "value": 3700, "unit": "nM"}, {"measurement": "IC20", "setting": "hERG", "value": 1300, "unit": "nM"}, {"measurement": "clearance", "setting": "[4]", "value": 11, "unit": "mL/min/kg"}, {"measurement": "CL", "setting": "[5]", "value": 271, "unit": "mL/min/kg"}, {"measurement": "MRT", "setting": "[6]", "value": 9, "unit": "h"}, {"measurement": "clearance at 24 h", "setting": "[7]", "value": 9, "unit": "mL/min/kg"}, {"measurement": "CL", "setting": "[8]", "value": 341, "unit": "mL/min/kg"}, {"measurement": "MRT at 24 h", "setting": "[9]", "value": 33, "unit": "h"}, {"measurement": "clearance", "setting": "[10]", "value": 13, "unit": "mL/min/kg"}, {"measurement": "CL", "setting": "[11]", "value": 341, "unit": "mL/min/kg"}, {"measurement": "MRT", "setting": "[12]", "value": 10, "unit": "h"}, {"measurement": "bioavailability", "setting": "[13]", "value": 100, "unit": "%"}, {"measurement": "bioavailability", "setting": "[14]", "value": 81, "unit": "%"}, {"measurement": "bioavailability", "setting": "[15]", "value": 21, "unit": "%"}, {"measurement": "Kp uu", "setting": "[16]", "value": 0.6}, {"measurement": "IC50", "setting": "[17]", "value": 29, "unit": "nM"}, {"measurement": "Activity", "setting": "[18]", "value": "Non-Toxic"}, {"measurement": "Drug metabolism", "setting": "[19]", "value": "Metabolite_Notdetected"}, {"measurement": "AUC", "setting": "[20]", "value": 111, "unit": "µM·h"}, {"measurement": "AUC", "setting": "[21]", "value": 458, "unit": "µM·h"}, {"measurement": "IC20", "setting": "Nav1.5", "value": 10000, "unit": "nM"}, {"measurement": "IC50", "setting": "[22]", "value": 28000, "unit": "nM"}, {"measurement": "inhibition at 30 µM", "setting": "[23]", "value": 15, "unit": "%"}, {"measurement": "inhibition (INH)", "setting": "[24]", "value": "Not Active"}, {"measurement": "Activity", "setting": "[25]", "value": "Toxic"}, {"measurement": "Activity", "setting": "[26]", "value": "Toxic"}, {"measurement": "Activity", "setting": "[27]", "value": "Toxic"}, {"measurement": "logD", "setting": "[28]", "value": 3}]}]}
